From paper PMC3805332, “Synthesis of α-Glucan in Mycobacteria Involves a Hetero-octameric Complex of Trehalose Synthase TreS and Maltokinase Pep2” (ACS Chemical Biology, 2013) come the findings set out here.

The target in assay [1] is TreS (trehalose synthase) (Mycobacterium tuberculosis, UniProt P9WQ19).
The target of assay [2] is T1, M. smegmatis TreS (Mycolicibacterium smegmatis, UniProt A0R6E0).
T1 construct: preparation of M. smegmatis TreS not described in main text
T1 sequence (A0R6E0 1-593): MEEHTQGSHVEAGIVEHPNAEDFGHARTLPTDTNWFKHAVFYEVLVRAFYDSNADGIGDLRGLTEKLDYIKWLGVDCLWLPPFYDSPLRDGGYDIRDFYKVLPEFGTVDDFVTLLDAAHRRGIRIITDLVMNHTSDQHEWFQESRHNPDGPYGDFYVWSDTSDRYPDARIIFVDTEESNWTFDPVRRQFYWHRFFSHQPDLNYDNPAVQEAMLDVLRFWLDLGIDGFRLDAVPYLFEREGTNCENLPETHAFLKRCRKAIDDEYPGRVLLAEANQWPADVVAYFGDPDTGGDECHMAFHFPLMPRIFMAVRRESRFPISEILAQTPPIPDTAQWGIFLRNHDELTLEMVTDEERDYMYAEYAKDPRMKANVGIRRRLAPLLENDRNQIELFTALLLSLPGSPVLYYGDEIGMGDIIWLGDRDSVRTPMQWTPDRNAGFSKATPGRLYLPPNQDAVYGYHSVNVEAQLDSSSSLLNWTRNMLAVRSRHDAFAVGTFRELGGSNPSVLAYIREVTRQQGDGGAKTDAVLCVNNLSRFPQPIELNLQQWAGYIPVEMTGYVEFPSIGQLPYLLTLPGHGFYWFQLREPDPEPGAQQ
Briefly: hexokinase/pyruvate kinase/lactate dehydrogenase coupled NADH fluorescence. Format: biochemical. The note with it: hydrolysis to glucose; HEPES-NaOH pH 7.5, 1 mM MgCl2, trehalose 0-25 mM, TreS 0.4 μM.

Molecules are shown by their SMILES.

Chain of TreS (trehalose synthase) (P9WQ19 whole entry): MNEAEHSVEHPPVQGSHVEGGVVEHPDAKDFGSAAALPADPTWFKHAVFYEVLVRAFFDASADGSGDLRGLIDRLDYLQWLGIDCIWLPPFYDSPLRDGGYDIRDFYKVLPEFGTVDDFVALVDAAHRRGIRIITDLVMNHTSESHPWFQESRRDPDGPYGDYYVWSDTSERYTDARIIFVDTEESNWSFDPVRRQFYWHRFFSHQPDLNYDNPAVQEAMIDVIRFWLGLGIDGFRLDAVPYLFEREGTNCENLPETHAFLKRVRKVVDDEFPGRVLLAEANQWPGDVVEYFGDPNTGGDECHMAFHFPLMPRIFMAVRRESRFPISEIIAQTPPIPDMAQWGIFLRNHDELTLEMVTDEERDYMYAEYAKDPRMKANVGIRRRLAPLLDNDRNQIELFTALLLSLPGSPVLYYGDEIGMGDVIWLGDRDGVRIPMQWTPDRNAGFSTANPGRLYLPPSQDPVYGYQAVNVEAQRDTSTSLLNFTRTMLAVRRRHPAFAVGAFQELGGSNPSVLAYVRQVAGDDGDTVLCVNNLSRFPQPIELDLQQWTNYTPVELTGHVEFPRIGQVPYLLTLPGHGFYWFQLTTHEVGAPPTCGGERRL

`OC[C@H]1O[C@H](O[C@H]2[C@H](O)[C@@H](O)C(O)O[C@@H]2CO)[C@H](O)[C@@H](O)[C@@H]1O` (stereo partly drawn) [maltose]: the “end-point thin layer chromatography” value in assay [1] was “Incubation of TreS with trehalose or maltose interconverted the substrates”.

For `OC[C@H]1O[C@H](O[C@H]2O[C@H](CO)[C@@H](O)[C@H](O)[C@H]2O)[C@H](O)[C@@H](O)[C@@H]1O` [trehalose], in assay [2], the “hexokinase/pyruvate kinase/lactate dehydrogenase coupled NADH fluorescence” value is reported as “we monitored M. smegmatis TreS-catalyzed conversion of trehalose to glucose in an enzyme-coupled continuous assay”. Further, the “end-point thin layer chromatography” value in assay [1] is on record as “Incubation of TreS with trehalose or maltose interconverted the substrates”.
